Literature values, collected in patent US10022349B2, “Cadotril particles” (Johnson & Johnson Consumer Inc., priority 2014, dated 2018).

Tests used:
[1] = poor aqueous solubility, dissolution rate limited absorption

solubility in water (in words) | water solubility (room temperature) | Biopharmaceutical Classification System class [1] | SMILES
insoluble in water | about 10 micrograms/ml | class II | CC(=O)SCC(Cc1ccccc1)C(=O)NCC(=O)OCc1ccccc1 (racemic) [Racecadotril, (RS)-benzyl N-[3-(acetylthio)-2-benzylpropanoyl]glycinate]
insoluble in water | – | – | CC(=O)SC[C@H](Cc1ccccc1)C(=O)NCC(=O)OCc1ccccc1 [dexecadotril, N—[(R)-2-Benzyl-3-(acetylthio)propionyl]glycine benzyl ester]
insoluble in water | – | – | CC(=O)SC[C@@H](Cc1ccccc1)C(=O)NCC(=O)OCc1ccccc1 [ecadotril, N—[(S)-2-[(Acetylthio)methyl]-1-oxo-3-phenylpropyl]glycinebenzyl ester]
